Reference: patent US20240398784A1, “C-LINKED ISOQUINOLINE AMIDES AS LRRK2 INHIBITORS, PHARMACEUTICAL COMPOSITIONS, AND USES THEREOF” (Merck Sharp & Dohme LLC, priority 2021, published 2024)

target: LRRK2 G2019S (Homo sapiens, UniProt Q5S007, G2019S); test: LRRK2 G2019S Km ATP LanthaScreen assay; type: biochemical; details: not given
Sequence (Q5S007 whole entry G2019S): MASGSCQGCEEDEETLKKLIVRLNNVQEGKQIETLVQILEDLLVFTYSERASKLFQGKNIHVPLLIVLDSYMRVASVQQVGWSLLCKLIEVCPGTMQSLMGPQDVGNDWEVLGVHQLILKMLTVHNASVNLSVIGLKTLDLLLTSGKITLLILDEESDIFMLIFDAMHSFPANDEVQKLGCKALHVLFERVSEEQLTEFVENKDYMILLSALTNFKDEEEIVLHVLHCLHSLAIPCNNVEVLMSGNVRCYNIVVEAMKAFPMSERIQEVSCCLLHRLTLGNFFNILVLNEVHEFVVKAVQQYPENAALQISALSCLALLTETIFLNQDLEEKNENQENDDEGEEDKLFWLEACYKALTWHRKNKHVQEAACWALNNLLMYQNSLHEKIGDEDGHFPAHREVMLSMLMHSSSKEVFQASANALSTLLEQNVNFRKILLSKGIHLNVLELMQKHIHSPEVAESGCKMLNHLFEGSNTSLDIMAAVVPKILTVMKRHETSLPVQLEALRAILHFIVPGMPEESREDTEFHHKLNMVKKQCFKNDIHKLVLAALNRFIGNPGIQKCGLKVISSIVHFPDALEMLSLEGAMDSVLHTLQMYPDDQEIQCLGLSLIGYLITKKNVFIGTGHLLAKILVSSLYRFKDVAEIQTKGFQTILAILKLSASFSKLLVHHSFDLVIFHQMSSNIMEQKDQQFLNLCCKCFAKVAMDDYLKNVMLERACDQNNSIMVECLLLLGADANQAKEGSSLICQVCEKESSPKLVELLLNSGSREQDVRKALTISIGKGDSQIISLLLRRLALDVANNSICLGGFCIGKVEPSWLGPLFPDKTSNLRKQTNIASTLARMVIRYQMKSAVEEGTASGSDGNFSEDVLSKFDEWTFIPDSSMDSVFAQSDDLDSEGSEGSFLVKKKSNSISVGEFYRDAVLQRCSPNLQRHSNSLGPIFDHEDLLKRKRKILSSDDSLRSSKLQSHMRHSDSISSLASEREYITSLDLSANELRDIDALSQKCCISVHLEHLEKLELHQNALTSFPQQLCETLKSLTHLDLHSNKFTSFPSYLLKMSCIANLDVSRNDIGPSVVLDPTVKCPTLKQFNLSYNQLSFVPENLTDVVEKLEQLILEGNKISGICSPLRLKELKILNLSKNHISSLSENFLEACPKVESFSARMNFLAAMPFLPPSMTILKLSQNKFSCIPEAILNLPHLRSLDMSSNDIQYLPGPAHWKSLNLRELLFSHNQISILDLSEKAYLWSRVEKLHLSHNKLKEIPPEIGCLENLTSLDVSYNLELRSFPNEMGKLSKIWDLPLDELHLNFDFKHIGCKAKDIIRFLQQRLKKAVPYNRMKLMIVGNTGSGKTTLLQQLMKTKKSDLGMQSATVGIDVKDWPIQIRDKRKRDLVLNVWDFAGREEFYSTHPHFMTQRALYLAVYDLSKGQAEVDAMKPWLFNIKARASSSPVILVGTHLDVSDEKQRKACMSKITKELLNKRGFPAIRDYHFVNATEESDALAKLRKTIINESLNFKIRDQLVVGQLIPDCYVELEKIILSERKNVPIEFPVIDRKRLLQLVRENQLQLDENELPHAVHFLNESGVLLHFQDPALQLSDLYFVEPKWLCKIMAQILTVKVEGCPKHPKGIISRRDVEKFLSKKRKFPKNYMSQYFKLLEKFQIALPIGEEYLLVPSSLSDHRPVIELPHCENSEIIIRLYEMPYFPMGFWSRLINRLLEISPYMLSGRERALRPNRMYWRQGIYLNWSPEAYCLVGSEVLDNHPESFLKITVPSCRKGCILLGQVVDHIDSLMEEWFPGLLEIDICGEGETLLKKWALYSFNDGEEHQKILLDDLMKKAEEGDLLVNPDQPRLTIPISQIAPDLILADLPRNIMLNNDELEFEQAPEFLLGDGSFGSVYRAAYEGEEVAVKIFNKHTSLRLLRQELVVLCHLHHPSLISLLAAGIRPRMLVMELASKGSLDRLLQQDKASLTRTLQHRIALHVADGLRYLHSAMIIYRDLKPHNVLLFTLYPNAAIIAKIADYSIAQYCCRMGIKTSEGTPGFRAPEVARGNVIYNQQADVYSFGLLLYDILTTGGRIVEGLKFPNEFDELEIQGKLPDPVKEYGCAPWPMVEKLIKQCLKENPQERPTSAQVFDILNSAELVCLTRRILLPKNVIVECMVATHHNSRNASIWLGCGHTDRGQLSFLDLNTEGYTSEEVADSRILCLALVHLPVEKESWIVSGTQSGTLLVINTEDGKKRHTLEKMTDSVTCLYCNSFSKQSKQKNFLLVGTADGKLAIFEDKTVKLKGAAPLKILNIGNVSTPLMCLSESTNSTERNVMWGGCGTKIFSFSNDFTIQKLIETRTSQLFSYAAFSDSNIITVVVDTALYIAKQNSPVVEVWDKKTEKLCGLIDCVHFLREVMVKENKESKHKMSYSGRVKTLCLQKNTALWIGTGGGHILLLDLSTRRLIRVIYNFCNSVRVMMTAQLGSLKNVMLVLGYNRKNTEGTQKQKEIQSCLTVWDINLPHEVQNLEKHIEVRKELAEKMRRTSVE

LRRK2 pIC50	SMILES
10.09	Cn1ncc(C2CC2C(=O)Nc2cc3cc(C4CCN(C5(C)COCC5O)CC4)c(Cl)cc3cn2)n1 [Ex-20.1, (1R,2R and 1S,2S)-N-(7-chloro-6-(1-(4-hydroxy-3-methyltetrahydrofuran-3-yl)piperidin-4-yl)isoquinolin-3-yl)-2-(2-methyl-2H-1,2,3-triazol-4-yl)cyclopropane-1-carboxamide]

same assay, conditions: read-out: LRRK2 pIC50 (converted)

SMILES	IC50 [nM]
N#CC1(c2ccc3cnc(NC(=O)C4CC45CC5)cc3c2)CC12CC2 (single isomer, unassigned) [Ex-2.1]	0.871
O=C(Nc1cc2cc(C3CCN(C4COCC4O)CC3)c(Cl)cc2cn1)C1CC12CCOCC2 (single isomer, unassigned) [Ex-4.3, N-(7-chloro-6-(1-(4-hydroxytetrahydrofuran-3-yl)piperidin-4-yl)isoquinolin-3-yl)-6-oxaspiro[2.5]octane-1-carboxamide]	18.2
CC(C)(O)c1cccc(CC(=O)Nc2cc3cc(C4(C#N)CC45CC5)ccc3cn2)c1 (single isomer, unassigned) [Ex-1.45, (R or S)-N-(6-(1-cyanospiro[2.2]pentan-1-yl)isoquinolin-3-yl)-2-(3-(2-hydroxypropan-2-yl)phenyl)acetamide]	12.9
COC1CC(C(=O)Nc2cc3cc(C4(C#N)CC45CC5)ccc3cn2)C1 (single isomer, unassigned) [Ex-1.2, (1R,3R or 1S,3S)-N-(6-((R or S)-1-cyanospiro[2.2]pentan-1-yl)isoquinolin-3-yl)-3-methoxycyclobutane-1-carboxamide]	0.661
CC(C)(O)c1ccc(CC(=O)Nc2cc3cc(C4(C#N)CC45CC5)ccc3cn2)cc1 (single isomer, unassigned) [Ex-1.44, (R or S)-N-(6-(1-cyanospiro[2.2]pentan-1-yl)isoquinolin-3-yl)-2-(4-(2-hydroxypropan-2-yl)phenyl)acetamide]	22.9
CC1(N2CCC(c3cc4cc(NC(=O)C5CC(F)(F)C5)ncc4cc3Cl)CC2)COCC1O (single isomer, unassigned) [Ex-1.18, N-(7-chloro-6-(1-((3R,4R or 3S,4S)-4-hydroxy-3-methyltetrahydrofuran-3-yl)piperidin-4-yl)isoquinolin-3-yl)-3,3-difluorocyclobutane-1-carboxamide]	1.35
CC1(N2CCC(c3cc4cc(NC(=O)Cc5cccnc5)ncc4cc3Cl)CC2)COCC1O (stereo not drawn) [Ex-3.7]	0.0813
CC(C(=O)Nc1cc2cc(C3(C#N)CC34CC4)ccc2cn1)c1cnn(C)c1 (stereo not drawn) [Ex-2.110]	0.575
CC1(C)CC(C(=O)Nc2cc3cc(C4CCN(C5(C)COCC5O)CC4)c(Cl)cc3cn2)CCO1 (stereo not drawn) [Ex-2.34]	1.7
CC(C)(O)C1CC(C(=O)Nc2cc3cc(C4CCN(C5(C)COCC5O)CC4)c(Cl)cc3cn2)C1 (stereo not drawn) [Ex-2.14]	0.186
CC(C)(O)C1CC1C(=O)Nc1cc2cc(C3CCN(C4(C)COCC4O)CC3)c(Cl)cc2cn1 (single isomer, unassigned) [Ex-1.21, (1R,2R or 1S,2S)-N-(7-chloro-6-(1-((3R,4R or 3S,4S)-4-hydroxy-3-methyltetrahydrofuran-3-yl)piperidin-4-yl)isoquinolin-3-yl)-2-(2-hydroxypropan-2-yl)cyclopropane-1-carboxamide]	0.0912
Cc1cc2cnc(NC(=O)C3CC3C(F)F)cc2cc1C1CCN(C2(C)COCC2O)CC1 (stereo not drawn) [Ex-2.54]	0.49
CC(C(=O)Nc1cc2cc(C3(C#N)CC34CC4)ccc2cn1)c1cnn(C)c1 (stereo not drawn) [Ex-2.111]	2.24
Cn1cc(N2CCC(C(=O)Nc3cc4cc(C5(C#N)CC56CC6)ccc4cn3)C2)cn1 (stereo not drawn) [Ex-2.76]	26.3
N#CC1(c2ccc3cnc(NC(=O)C4CC(OC(F)F)C4)cc3c2)CC12CC2 (single isomer, unassigned) [Ex-2.7]	10.5
Cn1cc(C(=O)Nc2cc3cc(C4CCN(C5COC5)CC4)c(Cl)cc3cn2)cn1 [Ex-1.36, N-(7-chloro-6-(1-(oxetan-3-yl)piperidin-4-yl)isoquinolin-3-yl)-1-methyl-1H-pyrazole-4-carboxamide]	5.89
O=C(C[C@@H](O)C(F)(F)F)Nc1cc2cc(C3CCN(C4COC4)CC3)c(Cl)cc2cn1 [Ex-1.35, (R)-N-(7-chloro-6-(1-(oxetan-3-yl)piperidin-4-yl)isoquinolin-3-yl)-4,4,4-trifluoro-3-hydroxybutanamide]	26.3

Now from value to compound:

IC50 [nM]	SMILES
4270	CC1(C)CCC(C(=O)Nc2cc3cc(C4CCC(N5CCC(F)C5)CC4)c(Cl)cc3cn2)CO1 (single isomer, unassigned) [Ex-5.24, N-(7-chloro-6-(4-(3-fluoropyrrolidin-1-yl)cyclohexyl)isoquinolin-3-yl)-6,6-dimethyltetrahydro-2H-pyran-3-carboxamide]
2.69	Cc1cc2cnc(NC(=O)C3CC34CCOC4)cc2cc1C1CCN(C2(C)COCC2F)CC1 (single isomer, unassigned) [Ex-15.13, N-(6-(1-(4-fluoro-3-methyltetrahydrofuran-3-yl)piperidin-4-yl)-7-methylisoquinolin-3-yl)-5-oxaspiro[2.4]heptane-1-carboxamide]
661	CC1(N2CCC(c3cc4cc(NC(=O)C5CCC5c5ccccn5)ncc4cc3Cl)CC2)COCC1O (single isomer, unassigned) [Ex-4.73, N-(7-chloro-6-(1-(4-hydroxy-3-methyltetrahydrofuran-3-yl)piperidin-4-yl)isoquinolin-3-yl)-2-(pyridin-2-yl)cyclobutane-1-carboxamide]
1.95	O=C(Nc1cc2cc(C3CCN(C4COC4)CC3)c(Cl)cc2cn1)C1CC12CCOCC2 (single isomer, unassigned) [Ex-9.7, N-(7-chloro-6-(1-(oxetan-3-yl)piperidin-4-yl)isoquinolin-3-yl)-6-oxaspiro[2.5]octane-1-carboxamide]
0.0813	CC1(N2CCC(c3cc4cc(NC(=O)C5CC5c5cccs5)ncc4cc3Cl)CC2)COCC1O (single isomer, unassigned) [Ex-4.60, N-(7-chloro-6-(1-(4-hydroxy-3-methyltetrahydrofuran-3-yl)piperidin-4-yl)isoquinolin-3-yl)-2-(thiophen-2-yl)cyclopropane-1-carboxamide]
3.24	Cc1cc2cnc(NC(=O)C3CC3)cc2cc1C1CCN(C2(C)COC2)CC1 [Ex-15.1]
58.9	CCC1C(C(=O)Nc2cc3cc(C4CCN(C5(C)COCC5F)CC4)c(C)cc3cn2)C1c1cnn(C)c1 (single isomer, unassigned) [Ex-15.15, 2-ethyl-N-(6-(1-(4-fluoro-3-methyltetrahydrofuran-3-yl)piperidin-4-yl)-7-methylisoquinolin-3-yl)-3-(1-methyl-1H-pyrazol-4-yl)cyclopropane-1-carboxamide]
2	Cc1cc2cnc(NC(=O)C3CC34CCOC4)cc2cc1C1CCN(C2(C)COCC2F)CC1 (single isomer, unassigned) [Ex-15.10, N-(6-(1-(4-fluoro-3-methyltetrahydrofuran-3-yl)piperidin-4-yl)-7-methylisoquinolin-3-yl)-5-oxaspiro[2.4]heptane-1-carboxamide]
5.75	CC1CC1(C#N)c1ccc2cnc(NC(=O)C3CC3)cc2c1 (single isomer, unassigned) [Ex-18.5, (R or S)-N-(6-(1-cyano-2-methylcyclopropyl)isoquinolin-3-yl)cyclopropanecarboxamide]
3.39	COC1COCC1N1CCC(c2cc3cc(NC(=O)C4CC45CCOCC5)ncc3cc2Cl)CC1 (single isomer, unassigned) [Ex-6.53, N-(7-chloro-6-(1-(4-methoxytetrahydrofuran-3-yl)piperidin-4-yl)isoquinolin-3-yl)-6-oxaspiro[2.5]octane-1-carboxamide]
38.9	CC1(C)CC(C(=O)Nc2cc3cc(C4CCC(N5CCC(F)C5)CC4)c(Cl)cc3cn2)CCO1 (single isomer, unassigned) [Ex-5.14, N-(7-chloro-6-(4-(3-fluoropyrrolidin-1-yl)cyclohexyl)isoquinolin-3-yl)-2,2-dimethyltetrahydro-2H-pyran-4-carboxamid]
1.17	CCC1C(C(=O)Nc2cc3cc(C(C)COC)c(Cl)cc3cn2)C1c1cnn(C)c1 (single isomer, unassigned) [Ex-9.14, N-(7-chloro-6-(1-methoxypropan-2-yl)isoquinolin-3-yl)-2-ethyl-3-(1-methyl-1H-pyrazol-4-yl)cyclopropane-1-carboxamide]
0.0813	CC1(N2CCC(c3cc4cc(NC(=O)C5CC5c5ccncc5)ncc4cc3Cl)CC2)COCC1O (single isomer, unassigned) [Ex-4.21, N-(7-chloro-6-(1-(4-hydroxy-3-methyltetrahydrofuran-3-yl)piperidin-4-yl)isoquinolin-3-yl)-2-(pyridin-4-yl)cyclopropane-1-carboxamide]
1020	CC1(C)CCC(C(=O)Nc2cc3cc(C4CCC(N5CCC(F)C5)CC4)c(Cl)cc3cn2)CO1 (single isomer, unassigned) [Ex-5.18, N-(7-chloro-6-(4-(3-fluoropyrrolidin-1-yl)cyclohexyl)isoquinolin-3-yl)-6,6-dimethyltetrahydro-2H-pyran-3-carboxamide]
0.0813	Cc1cc2cnc(NC(=O)C3C(C)C3c3cnn(C)c3)cc2cc1C1CCN(C2(C)COCC2F)CC1 (single isomer, unassigned) [Ex-16.7, N-(6-(1-(4-fluoro-3-methyltetrahydrofuran-3-yl)piperidin-4-yl)-7-methylisoquinolin-3-yl)-2-methyl-3-(1-methyl-1H-pyrazol-4-yl)cyclopropane-1-carboxamide]
4.17	O=C(Nc1cc2cc(C3CCN(C4CS(=O)(=O)C4)CC3)c(Cl)cc2cn1)C1CC1 [Ex-13.5]
316	Cn1cc(C(=O)Nc2cc3cc(C4CCN([C@]5(C)COC[C@@H]5O)CC4)c(Cl)cc3cn2)cn1 (single isomer, unassigned) [Ex-12.8, N-(7-chloro-6-(1-(4-hydroxy-3-methyltetrahydrofuran-3-yl)piperidin-4-yl)isoquinolin-3-yl)-1-methyl-1H-pyrazole-4-carboxamide]
0.0813	CC1(N2CCC(c3cc4cc(NC(=O)C5CC56CCOC6)ncc4cc3Cl)CC2)COCC1F (single isomer, unassigned) [Ex-6.3, (R or S)-N-(7-chloro-6-(1-((3R,4R or 3S,4S)-4-fluoro-3-methyltetrahydrofuran-3-yl)piperidin-4-yl)isoquinolin-3-yl)-5-oxaspiro [2.4] heptane-1-carboxamide]
